Reference: PubChem BioAssay (NCI)
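Tested at 5 concentrations; 48 h exposure; 96-well plates; endpoints linearly interpolated, else capped at highest concentration. At the TGI there is no net growth.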

How the values were obtained:
Test in all cases: NCI anticancer screen, dose series, 48 h
SK-MEL-28 melanoma = tested on: SK-MEL-28 melanoma
ACHN renal = tested on: ACHN renal
UACC-257 melanoma = tested on: UACC-257 melanoma
MCF7 breast = tested on: MCF7 breast
HCT-116 colon = tested on: HCT-116 colon
COLO 205 colon = tested on: COLO 205 colon
SNB-19 CNS = tested on: SNB-19 CNS
OVCAR-8 ovarian = tested on: OVCAR-8 ovarian
SK-OV-3 ovarian = tested on: SK-OV-3 ovarian
MDA-N = tested on: MDA-N
MDA-MB-231 breast = tested on: MDA-MB-231 breast
NCI-H23 lung = tested on: NCI-H23 lung
SF-268 CNS = tested on: SF-268 CNS
HCT-15 colon = tested on: HCT-15 colon
UO-31 renal = tested on: UO-31 renal
SN12C renal = tested on: SN12C renal
KM12 colon = tested on: KM12 colon
MOLT-4 leukemia = tested on: MOLT-4 leukemia
U251 CNS = tested on: U251 CNS
NCI-H522 lung = tested on: NCI-H522 lung
RXF 393 renal = tested on: RXF 393 renal
DU-145 prostate = tested on: DU-145 prostate
CCRF-CEM leukemia = tested on: CCRF-CEM leukemia
SR leukemia = tested on: SR leukemia
PC-3 prostate = tested on: PC-3 prostate
NCI-H460 lung = tested on: NCI-H460 lung
SW-620 colon = tested on: SW-620 colon
HCC-2998 colon = tested on: HCC-2998 colon
HOP-92 NSCLC = tested on: HOP-92 NSCLC
OVCAR-4 ovarian = tested on: OVCAR-4 ovarian
HT29 colon = tested on: HT29 colon
NCI/ADR-RES ovarian = tested on: NCI/ADR-RES ovarian
SK-MEL-5 melanoma = tested on: SK-MEL-5 melanoma
LOX IMVI melanoma = tested on: LOX IMVI melanoma
A549 NSCLC = tested on: A549 NSCLC
HS 578T breast = tested on: HS 578T breast
T-47D breast = tested on: T-47D breast
A498 renal = tested on: A498 renal
OVCAR-3 ovarian = tested on: OVCAR-3 ovarian
TK-10 renal = tested on: TK-10 renal
MDA-MB-435 = tested on: MDA-MB-435
NCI-H226 lung = tested on: NCI-H226 lung
SF-295 CNS = tested on: SF-295 CNS
SNB-75 CNS = tested on: SNB-75 CNS
HL-60(TB) leukemia = tested on: HL-60(TB) leukemia
UACC-62 melanoma = tested on: UACC-62 melanoma
RPMI-8226 leukemia = tested on: RPMI-8226 leukemia
M14 melanoma = tested on: M14 melanoma
CAKI-1 renal = tested on: CAKI-1 renal
SK-MEL-2 melanoma = tested on: SK-MEL-2 melanoma
786-0 renal = tested on: 786-0 renal
SF-539 CNS = tested on: SF-539 CNS
OVCAR-5 ovarian = tested on: OVCAR-5 ovarian
K-562 leukemia = tested on: K-562 leukemia
HOP-62 NSCLC = tested on: HOP-62 NSCLC
MALME-3M melanoma = tested on: MALME-3M melanoma
EKVX NSCLC = tested on: EKVX NSCLC

Structure (SMILES): CC1(CO)COC(C)(C)OC1
- TGI (SK-MEL-28 melanoma): > 100 µM
- TGI (ACHN renal): > 100 µM
- TGI (UACC-257 melanoma): > 100 µM
- TGI (MCF7 breast): > 100 µM
- TGI (HCT-116 colon): > 100 µM
- TGI (COLO 205 colon): > 100 µM
- TGI (SNB-19 CNS): > 100 µM
- TGI (OVCAR-8 ovarian): > 100 µM
- TGI (SK-OV-3 ovarian): > 100 µM
- TGI (MDA-N): > 100 µM
- TGI (MDA-MB-231 breast): > 100 µM
- TGI (NCI-H23 lung): > 100 µM
- TGI (SF-268 CNS): > 100 µM
- TGI (HCT-15 colon): > 100 µM
- TGI (UO-31 renal): > 100 µM
- TGI (SN12C renal): > 100 µM
- TGI (KM12 colon): > 100 µM
- TGI (MOLT-4 leukemia): > 100 µM
- TGI (U251 CNS): > 100 µM
- TGI (NCI-H522 lung): > 100 µM
- TGI (RXF 393 renal): > 100 µM
- TGI (DU-145 prostate): > 100 µM
- TGI (CCRF-CEM leukemia): > 100 µM
- TGI (SR leukemia): > 100 µM
- TGI (PC-3 prostate): > 100 µM
- TGI (NCI-H460 lung): > 100 µM
- TGI (SW-620 colon): > 100 µM
- TGI (HCC-2998 colon): > 100 µM
- TGI (HOP-92 NSCLC): > 100 µM
- TGI (OVCAR-4 ovarian): > 100 µM
- TGI (HT29 colon): > 100 µM
- TGI (NCI/ADR-RES ovarian): > 100 µM
- TGI (SK-MEL-5 melanoma): > 100 µM
- TGI (LOX IMVI melanoma): > 100 µM
- TGI (A549 NSCLC): > 100 µM
- TGI (HS 578T breast): > 100 µM
- TGI (T-47D breast): > 100 µM
- TGI (A498 renal): > 100 µM
- TGI (OVCAR-3 ovarian): > 100 µM
- TGI (TK-10 renal): > 100 µM
- TGI (MDA-MB-435): > 100 µM
- TGI (NCI-H226 lung): > 100 µM
- TGI (SF-295 CNS): > 100 µM
- TGI (SNB-75 CNS): > 100 µM

Structure (SMILES): CCOC(=O)C(=O)/C(=C/n1c(=S)[nH]c2ccc([N+](=O)[O-])cc21)C(=O)OCC
- TGI (SK-MEL-28 melanoma): > 100 µM
- TGI (ACHN renal): > 100 µM
- TGI (UACC-257 melanoma): > 100 µM
- TGI (MCF7 breast): > 100 µM
- TGI (HL-60(TB) leukemia): > 100 µM
- TGI (HCT-116 colon): > 100 µM
- TGI (UACC-62 melanoma): > 100 µM
- TGI (RPMI-8226 leukemia): > 100 µM
- TGI (COLO 205 colon): > 100 µM
- TGI (SNB-19 CNS): > 100 µM
- TGI (OVCAR-8 ovarian): > 100 µM
- TGI (SK-OV-3 ovarian): > 100 µM
- TGI (MDA-N): > 100 µM
- TGI (MDA-MB-231 breast): > 100 µM
- TGI (M14 melanoma): > 100 µM
- TGI (NCI-H23 lung): > 100 µM
- TGI (SF-268 CNS): > 100 µM
- TGI (CAKI-1 renal): > 100 µM
- TGI (UO-31 renal): > 100 µM
- TGI (SN12C renal): > 100 µM
- TGI (KM12 colon): > 100 µM
- TGI (MOLT-4 leukemia): > 100 µM
- TGI (U251 CNS): > 100 µM
- TGI (SK-MEL-2 melanoma): > 100 µM
- TGI (RXF 393 renal): > 100 µM
- TGI (DU-145 prostate): > 100 µM
- TGI (CCRF-CEM leukemia): > 100 µM
- TGI (SR leukemia): > 100 µM
- TGI (786-0 renal): > 100 µM
- TGI (SF-539 CNS): > 100 µM
- TGI (PC-3 prostate): > 100 µM
- TGI (OVCAR-5 ovarian): > 100 µM
- TGI (NCI-H460 lung): > 100 µM
- TGI (SW-620 colon): > 100 µM
- TGI (HCC-2998 colon): > 100 µM
- TGI (HOP-92 NSCLC): > 100 µM
- TGI (OVCAR-4 ovarian): > 100 µM
- TGI (HT29 colon): > 100 µM
- TGI (NCI/ADR-RES ovarian): > 100 µM
- TGI (SK-MEL-5 melanoma): > 100 µM
- TGI (K-562 leukemia): > 100 µM
- TGI (LOX IMVI melanoma): > 100 µM
- TGI (A549 NSCLC): > 100 µM
- TGI (HS 578T breast): > 100 µM
- TGI (T-47D breast): > 100 µM
- TGI (A498 renal): > 100 µM
- TGI (HOP-62 NSCLC): > 100 µM
- TGI (OVCAR-3 ovarian): > 100 µM
- TGI (TK-10 renal): > 100 µM
- TGI (MDA-MB-435): > 100 µM
- TGI (NCI-H226 lung): > 100 µM
- TGI (SF-295 CNS): > 100 µM
- TGI (SNB-75 CNS): > 100 µM

Structure (SMILES): Oc1ccc(O)c(Cc2ccccc2)c1
- TGI (SK-MEL-28 melanoma): > 100 µM
- TGI (ACHN renal): 28.7 µM
- TGI (UACC-257 melanoma): 99.5 µM
- TGI (MCF7 breast): 29.4 µM
- TGI (HL-60(TB) leukemia): 4.14 µM
- TGI (UACC-62 melanoma): 56.1 µM
- TGI (RPMI-8226 leukemia): 21.3 µM
- TGI (COLO 205 colon): 32.6 µM
- TGI (SNB-19 CNS): > 100 µM
- TGI (OVCAR-8 ovarian): 33.9 µM
- TGI (SK-OV-3 ovarian): > 100 µM
- TGI (MDA-N): 41.5 µM
- TGI (MDA-MB-231 breast): 46.6 µM
- TGI (M14 melanoma): 73.9 µM
- TGI (NCI-H23 lung): > 100 µM
- TGI (SF-268 CNS): 27.8 µM
- TGI (HCT-15 colon): 29.1 µM
- TGI (UO-31 renal): 28.4 µM
- TGI (SN12C renal): 38.6 µM
- TGI (KM12 colon): 65.2 µM
- TGI (MOLT-4 leukemia): 22.8 µM
- TGI (U251 CNS): 45.8 µM
- TGI (SK-MEL-2 melanoma): 37.3 µM
- TGI (DU-145 prostate): 22.8 µM
- TGI (CCRF-CEM leukemia): > 100 µM
- TGI (SR leukemia): 14.5 µM
- TGI (786-0 renal): 33.7 µM
- TGI (SF-539 CNS): 23 µM
- TGI (PC-3 prostate): > 100 µM
- TGI (OVCAR-5 ovarian): > 100 µM
- TGI (NCI-H460 lung): 49.5 µM
- TGI (SW-620 colon): 56.9 µM
- TGI (HCC-2998 colon): > 100 µM
- TGI (HOP-92 NSCLC): 35.6 µM
- TGI (OVCAR-4 ovarian): 27.2 µM
- TGI (HT29 colon): > 100 µM
- TGI (NCI/ADR-RES ovarian): 42.9 µM
- TGI (SK-MEL-5 melanoma): 37.9 µM
- TGI (K-562 leukemia): 25.8 µM
- TGI (LOX IMVI melanoma): 41 µM
- TGI (A549 NSCLC): > 100 µM
- TGI (HS 578T breast): > 100 µM
- TGI (T-47D breast): 11.8 µM
- TGI (A498 renal): > 100 µM
- TGI (HOP-62 NSCLC): 60.3 µM
- TGI (OVCAR-3 ovarian): 7.8 µM
- TGI (MALME-3M melanoma): 88.9 µM
- TGI (TK-10 renal): 51.3 µM
- TGI (MDA-MB-435): 42 µM
- TGI (NCI-H226 lung): 57.2 µM
- TGI (SF-295 CNS): > 100 µM
- TGI (EKVX NSCLC): > 100 µM
